Data set [1] is described as follows: Dialysis equilibrium study of diclofenac release from diclofenac-chondroitin complexes. Conditions: 2 KDa cut-off, 100 mL in 2 L water, 25° C. It is filed as physicochemical.
A short description of data set [2]: In vivo transcutaneous absorption of diclofenac gels in nude mice. Further details: species or system Charles River nude mice. Conditions: conclusion from tables 8-10. The procedure: During the study the animals were kept in individual cages, with unrestricted access to food and water.
The animals were euthanised 1, 5 and 10 h after the application, as reported in the trial design in table 7. Immediately after euthanisation the gel application area was washed thoroughly to discriminate between the radioactivity applied and the radioactivity absorbed by the skin. The treated skin areas, liver and blood were recovered from the euthanised animals, and the samples were weighed and frozen immediately after removal. The urine of the animals was recovered from the cages by washing.

Data set [3] in a line: Topical absorption and distribution of [3H]chondroitin gels in nude mice. The format is in vivo, Charles River nude mice. The procedure: 60 five-month-old Charles River nude mice of both sexes were used as experimental model to evaluate the transcutaneous absorption of chondroitin. The animals were randomised into 12 groups of 5 which, as reported in the study design in table 1, were treated with 50 mg of [^3H]chondroitin gel with different MWs, prepared as described in example 1. During the study the animals were kept in individual cages, with unrestricted access to food and water.
The animals were euthanised 1, 5, 10 and 20 h after the application, as reported in the trial design in table 1. Immediately after euthanisation the gel application area was thoroughly washed until no detectable traces of radioactivity remained in the washing water, in order to discriminate between the radioactivity applied and the radioactivity absorbed by the skin. The treated skin areas, liver and blood were recovered from the euthanised animals, and the samples were weighed and frozen immediately after removal. The urine of the animals was recovered from the cages by washing.
Skin, liver and blood samples (150-200 mg) were solubilised in Soluene […] at ambient temperature. The radioactivity was measured by liquid-phase scintillation on the solubilised samples and the urine.

Data set [4] is described as follows: Absorption of diclofenac by human skin using the Franz cell. Conditions: compared with absence of the polysaccharide or presence of chondroitin sulphate. The format is in vitro ADME.
Experimental: The skin was frozen to −20° C. immediately after removal, and kept at that temperature until the time of use. Before being placed in the Franz cells, the frozen skin was cleaned of subcutaneous fat, so that only the stratum corneum, the epidermis and the dermis were used, and cut to a size suitable for positioning in the Franz cell, with the stratum corneum facing upwards. Before the study began, the cell was maintained at 30° C. for 10 h with continual stirring of the receptor solution consisting of 10 mL of HBSS (Hank's Buffered Saline Solutions). The surface on which the formulation was deposited measured about 3 cm^2. Before application of the gel in the cells, the receptor solution was replaced, taking care to eliminate all air bubbles between skin and solution.
At the indicated times the receptor phase was recovered and the skin surface was washed thoroughly to remove all the unabsorbed gel. The skin was recovered, homogenised and digested for 10 h under stirring at 30° C. with collagenase (5,200 I/g of skin) in 10 mM of phosphate buffer pH 7.4. At the end of the incubation, 0.4 volumes of ethanol were added and the mixture was centrifuged at 10,000 rpm for 20 min. […] The eluate was monitored at 276 nm.
Data set [5] can be described thus: Absorption of ketorolac by human skin using the Franz cell. It is filed as in vitro ADME. To be noted: compared with absence of the polysaccharide.
Experimental: 10 mg of the following gels was applied to the skin surface: a) tromethamine ketorolac salt gel (per gram of gel: 100 mg of polyethylene glycol, 1 mg of benzyl alcohol, 200 mg of tromethamine ketorolac salt and water q.s. for 1 g, dissolved at 50° C. under vigorous stirring); b) tromethamine ketorolac salt-chondroitin gel (0.535 moles of tromethamine ketorolac salt/mole of disaccharide chondroitin units; per gram of gel: 100 mg of polyethylene glycol, 1 mg of benzyl alcohol, 200 mg of chondroitin MW 62 KDa, 100 mg of tromethamine ketorolac salt and water q.s. for 1 g, dissolved at 50° C. under vigorous stirring).
The quantity of ketorolac present in the skin washing solution (unabsorbed part), in the enzymatic tissue digestate (part absorbed by the skin) and in the receptor fluid (part that crossed the skin structure) was determined quantitatively by HPLC. The tests were conducted on a Waters model 746 (USA) HPLC, equipped with a μ-bondapack C18 column (150×4.6 millimetres). A solution of acetonitrile, deionised water and orthophosphoric acid (45:54.5:0.5 in vol.), with a final pH of 3.5, was used as mobile phase, operating with a flow rate of 1 mL/min. The eluate was monitored at 280 nm. Quantitation was performed by measuring the ratios between the peak area of ketorolac and the peak area of the internal standard, consisting of a naproxen solution with a known titre.
The conditions of data set [6]: Franz cell, human skin; cited from earlier work.

Turning to `O=C(O)Cc1ccccc1Nc1c(Cl)cccc1Cl` [Diclofenac only, 2-(2-[2,6-dichlorophenylamino]phenyl) ethanoic acid], the “% OD275 present in the dialysis medium” value in data set [1] (1 h) worked out at 85%; in data set [1] (2 h) it was 94%; in data set [1] (4 h), 96%; in data set [1] (8 h) it was 95%; in data set [1] (16 h) it was 96%.
Regarding chondroitin, the “acts as transdermal carrier of diclofenac” value in data set [2] is “acts as an efficient transdermal carrier of diclofenac”. Besides, the “radioactivity in skin, % of dose applied” value in data set [3] (skin, 1 h after topical application of 50 mg gel) was “about 50 % of dose applied”. Moreover, the “radioactivity in urine, % of dose applied” value in data set [3] (urine, 20 h) was “about 25 % of dose applied”. Also, the “absorption of diclofenac in the presence of chondroitin” value in data set [4] is given as “increases significantly”. Besides, in data set [5], the “absorption of ketorolac in the presence of chondroitin” value is “increases significantly”.
With chondroitin sulphate, in data set [2], the “acts as transdermal carrier of diclofenac” value was “not”. Also, the “ability to transport diclofenac and ibuprofen in the skin” value (“ability” for short) in data set [6] is “are not”.
Consider heparin, for which, in data set [6], the “ability” value is on record as “are not”.
Consider hyaluronic acid, for which, in data set [6], the “ability” value was “able to transport diclofenac and ibuprofen in the skin”.

The record behind these values is US20190000803A1, “CHONDROITIN COMPLEXES FOR TRANSCUTANEOUS ABSORPTION” (Altergon S.A., priority 2012, published 2019).
